Values quoted from earlier work in the CATMoS acute toxicity set (Mansouri et al. 2021).
*1 amine or outer side, *2 acyl side, *3 side chain or, on linkers, in order; H or OH if unused. Where a SMILES comes first, the peptide text is derived from it. Bridges are numbered along the chain shown (N, C = ends). Roman numbers before positions name the chains, in order. [ ]: non-standard residue; d: D form. Actinocin(9to1) = Cc1c2oc3c(C)ccc(C(=O)[*:1])c3nc-2c(C(=O)[*:2])c(N)c1=O; NMeV = CN[C@H](C(=O)O)C(C)C; Sar = CNCC(=O)O

Assay: rat acute oral toxicity
Settings: in vivo

Structure (SMILES)	LD50
CC1(C)C2CCC(C=O)C1C2 (stereo unspecified)	2300 mg/kg
C=CCOc1ccccc1C(=O)NCCO	1150 mg/kg
CCCC/C=C/C=O	1300 mg/kg
CCN(C)CCC(CC=C(C)C)(C(N)=O)c1cccc2ccccc12 (stereo unspecified)	71 mg/kg
CCCOc1ccc(C=CC(=S)OCC)cc1OC	1010 mg/kg
Cc1cc(Cl)ccc1OCCCC(=O)O	700 mg/kg
CCCCCCCCCCCC(=O)OC1=C(c2c(C)cc(C)cc2C)C(=O)c2ccccc21	9500 mg/kg
CCCOC(=O)COc1cccc(C(C)(C)C)c1	1800 mg/kg
COc1cc(O)c(C(=O)c2ccccc2)cc1S(=O)(=O)O	3530 mg/kg
CCOC(=O)C1=C(O)c2ccccc2S(=O)(=O)N1C	4800 mg/kg
O=c1ccc2cc3ccoc3c(O)c2o1	480 mg/kg
CN(C)C(=O)C(CCN1CCC(O)(c2ccc(Cl)c(C(F)(F)F)c2)CC1)(c1ccccc1)c1ccccc1	86 mg/kg
O=C(O)c1ccccc1C(=O)O	7900 mg/kg
CCCCOC(=S)S	456 mg/kg
COCCOC(C)OCCOC	3260 mg/kg
NC(N)=Nc1nc(CSCCC(N)=NS(N)(=O)=O)cs1	4050 mg/kg
CCc1cc(=O)c2ccccc2o1	1400 mg/kg
Cn1c(=O)c2c(ncn2CC(O)CN2CCN(CCCSc3ccccc3)CC2)n(C)c1=O (stereo unspecified)	2100 mg/kg
C=CC(C)=O	23.1 mg/kg
CC(=O)CC(=O)Nc1ccc(Cl)cc1C	3500 mg/kg
N=C(N)Nc1ccc(C(=O)Oc2ccc3cc(C(=N)N)ccc3c2)cc1	3050 mg/kg
O=C1OC(=O)c2ccc(Cl)c3cccc1c23	3460 mg/kg
CON(C)C(=O)Nc1ccc(Br)c(Cl)c1	2150 mg/kg
CCOC(=O)C=Cc1ccc2c(c1)OCO2	948 mg/kg

Structure (SMILES)	LD50
CCc1c(C)[nH]c2c1C(=O)C(CN1CCOCC1)CC2 (stereo unspecified)	261 mg/kg
C=CCSCC1(C(C)CCC)C(=O)N=C(O)NC1=O (stereo unspecified)	702 mg/kg
BrCC(Br)C1CCC(Br)C(Br)C1 (stereo unspecified)	3220 mg/kg
FC(F)(F)c1nc2c(Br)c(Cl)c(Cl)c(Br)c2[nH]1	3.43 mg/kg
ClCC(Cl)(Cl)Cl	670 mg/kg
COC1CC2CC1C1CC(C=O)CC21 (stereo unspecified)	2800 mg/kg
CCC(C(=O)O)c1ccc(N2Cc3ccccc3C2=O)cc1 (stereo unspecified)	373 mg/kg
Cc1c2oc3c(C)ccc(C(=O)N[C@@H]4C(=O)N[C@H](C(C)C)C(=O)N5CCC[C@H]5C(=O)N(C)CC(=O)N(C)[C@@H](C(C)C)C(=O)O[C@@H]4C)c3nc-2c(C(=O)N[C@@H]2C(=O)N[C@H](C(C)C)C(=O)N3CCC[C@H]3C(=O)N(C)CC(=O)N(C)[C@@H](C(C)C)C(=O)O[C@@H]2C)c(N)c1=O (I: T[dV]P[Sar][NMeV] / II: T[dV]P[Sar][NMeV]; ester I:1-I:C, II:1-II:C; linker I:N-II:N via Actinocin(9to1))	7.2 mg/kg
C[C@]12CC[C@@H]3c4ccc(OC(=O)N(CCCl)CCCl)cc4CC[C@H]3[C@@H]1CC[C@@H]2OP(=O)(O)O	5400 mg/kg
OC1CC2CC1C1CC=CC21 (stereo unspecified)	3200 mg/kg
CCC1(CC)C(=O)NCC(C)C1=O (stereo unspecified)	860 mg/kg
CCOP(=S)(OCC)Oc1ccc(SC)c(C)c1	14 mg/kg
O=c1[nH]c2c(Cl)c(Cl)cc(Cl)c2o1	500 mg/kg
CCOC(=O)/C=C1/SC(N2CCCCC2)C(=O)N1C (stereo unspecified)	10200 mg/kg
N#CC=CCCC#N	380 mg/kg
CCOC(=O)OC(C)OC1=C(C(=O)Nc2ccccn2)N(C)S(=O)(=O)c2ccccc21 (stereo unspecified)	747 mg/kg
Fc1ccc(-c2cccs2)cc1	500 mg/kg
O=C1C=CC(=O)N1c1ccccc1Cl	520 mg/kg
O=C(NNC1OC(C(=O)O)C(O)C(O)C1O)c1ccncc1 (stereo unspecified)	20300 mg/kg
CNC(=S)NNc1cc(C(F)(F)F)cc(C(F)(F)F)c1	414 mg/kg
OCCC(O)Cl (stereo unspecified)	110 mg/kg
CCC(C)(CC)c1cc(N)on1	144 mg/kg
COc1nc(Cl)nc(OC)n1	870 mg/kg
Cc1ccc(C)c(N)c1	1300 mg/kg

Structure (SMILES)	LD50
O=[N+]([O-])c1ccc(/C=N/NC(=S)N2CCCC2)o1	750 mg/kg
O=NN1CCN(N=O)CC1	160 mg/kg
Cn1c2c(c3ccccc31)CCN(CCCN1CCN(c3ccccc3)CC1)C2=O	650 mg/kg
FC(F)OC(Cl)C(F)(F)F (stereo unspecified)	4770 mg/kg
CC[C@H]1CN2CCc3cc(OC)c(OC)cc3[C@@H]2C[C@@H]1C[C@H]1NCCc2cc(OC)c(OC)cc21	0.012 mg/kg
CCN(CC)CCNc1c2ccccc2nc2cccc([N+](=O)[O-])c12	42.2 mg/kg
Cc1cccc(C(C)c2ccccc2)c1C (stereo unspecified)	2050 mg/kg
CCN(CC)CCNc1c(Cl)cc(C)c2ncccc12	900 mg/kg
CC(C)(N)Cc1ccccc1Cl	332 mg/kg
CNS(=O)(=O)OCC(=O)N1CCCCCC1	2040 mg/kg
Cc1ncc(CSSCc2cnc(C)c(O)c2C)c(C)c1O	2150 mg/kg
CCN(CC)CCNC(=O)C(C)(C)Oc1ccc(Cl)cc1	300 mg/kg
CN(Sc1ccc(F)cc1)C(=O)Oc1cccc2c1OC(C)(C)C2	25 mg/kg
CC(C)Cc1ccc(C(C)C(=O)O)cc1 (stereo unspecified)	636 mg/kg
CC1CNC(C)CN1 (stereo unspecified)	3160 mg/kg
C1CN2CCC1CC2	81.2 mg/kg
Clc1cccc(SCc2nn[nH]n2)c1	2200 mg/kg
C[Si]1(C)OCCN(CCO)CCO1	3400 mg/kg
CCN(CC)CCOc1nn(-c2cccc(C(F)(F)F)c2)c2ncccc12	1200 mg/kg
CCOc1ccc(C2CC(N(CC)CC)c3ccccc32)cc1 (stereo unspecified)	860 mg/kg
CCOc1ccc(C(CN(C)C)C(C)CC)cc1Cl (stereo unspecified)	451 mg/kg
Cc1ncc(CSSCc2cnc(C)c(O)c2CCl)c(CCl)c1O	4300 mg/kg
CN=C(O)O/N=C1/SC(C)OC1C (stereo unspecified)	4.5 mg/kg
